Laboratory results: patent publication US20170231177A1, “REGENERATION AND TRANSFORMATION OF COSMOS BIPINNATUS PLANTLETS” (Novin Giti Gene R&D Center (N.G.G), priority 2015, published 2017)

Experiments:
[1] = test system: cotyledon explants of Cosmos Bipinnatus; assay: Shoot number of regenerated cotyledon explants on regeneration media; assay type: cell-based
Procedure: (§1) In this example, direct regeneration of Cosmos Bipinnatus plantlets was carried out with the following steps according to one or more aspects of the present disclosure. First, Cosmos Bipinnatus seeds were sterilized. The sterilization of Cosmos Bipinnatus seeds was carried out by soaking the seeds in an ethanol solution with a concentration of about 70% volume/volume for about 1 min followed by soaking the seeds in a hypochlorite sodium solution with a concentration of about 2% weight/volume for about 10 min, and then the seeds were rinsed three times with sterile distilled water.
(§2) The sterilized Cosmos Bipinnatus seeds were then germinated in order to obtain cotyledons of Cosmos Bipinnatus plant. Seed germination was carried out by putting the sterilized Cosmos Bipinnatus seeds under a sterile condition in an agar-solidified MS medium. Then, the sterilized Cosmos Bipinnatus seeds in the agar-solidified MS medium were incubated in a growth chamber with photoperiods of 16 hours in light and 8 hours in dark under fluorescent illuminations (60 μmol m^2 s^1) at 22° C.±1° C. for a period of 3 days. The cotyledons of Cosmos Bipinnatus plant that grew from germinated seeds after 3 days were cut and used as explants in the following steps of the direct regeneration process.
(§3) The obtained explants were then cultured onto a regeneration medium for regenerating cotyledon explants of Cosmos Bipinnatus. To this end, 10 explants, with their adaxial side down, were cultured onto the regeneration medium in a Petri dish for regeneration in cotyledons to occur. The regeneration in cotyledons was assessed by examining shoot-inducing ability in the presence of different regeneration medium compositions. The different regeneration medium compositions included respectively different concentrations of plant growth regulators and ethylene inhibitors. The regeneration media contained benzyl adenine (BA), silver nitrate, and adenine sulfate with different concentrations. An MS medium supplemented with 3% sucrose was used as a basal medium and the pH was adjusted to about 5.8 using a 1 N solution of NaOH.
As used herein, “shoot number” is the average number of shoots that are generated on the 10 explants used in the experiments for three replications.

[2] = test system: cotyledon explants of Cosmos Bipinnatus; assay: Regeneration frequency of cotyledon explants on regeneration media; assay type: cell-based
Procedure: as §1, §2
as §3, with “An MS medium supplemented with 3% sucrose was used as a basal medium and the pH was adjusted to about 5.8 using a 1 N solution of NaOH.” left out

[3] = BA 2.5, AgNO3 0, adenine sulfate 0 mg/l in MS medium
[4] = BA 5, AgNO3 0, adenine sulfate 0 mg/l in MS medium
[5] = BA 7.5, AgNO3 0, adenine sulfate 0 mg/l in MS medium

Nc1ncnc2nc[nH]c12.O=S(=O)(O)O [Adenine sulfate, adenine sulfate]
Shoot number ([1]; BA 0, AgNO3 0, adenine sulfate 10 mg/l in MS medium): 0.00 ± 0.00
Shoot number ([1]; BA 0, AgNO3 0, adenine sulfate 20 mg/l in MS medium): 0.00 ± 0.00
Shoot number ([1]; BA 0, AgNO3 0, adenine sulfate 40 mg/l in MS medium): 0.00 ± 0.00
Shoot number ([1]; BA 0, AgNO3 0, adenine sulfate 80 mg/l in MS medium): 0.00 ± 0.00

O=[N+]([O-])[O-].[Ag+] [AgNO3, silver nitrate]
Shoot number ([1]; BA 0, AgNO3 2.5, adenine sulfate 0 mg/l in MS medium): 0.00 ± 0.00
Shoot number ([1]; BA 0, AgNO3 5, adenine sulfate 0 mg/l in MS medium): 0.00 ± 0.00
Shoot number ([1]; BA 0, AgNO3 7.5, adenine sulfate 0 mg/l in MS medium): 0.00 ± 0.00

c1ccc(CNc2ncnc3nc[nH]c23)cc1 [BA, benzyladenine]
Regeneration frequency [2, 3]: 6.25 ± 0.00%
Regeneration frequency [2, 4]: 6.25 ± 1.70%
Regeneration frequency [2, 5]: 5.25 ± 2.06%
Shoot number [1, 3]: 1.34 ± 0.33
Shoot number [1, 4]: 0.34 ± 0.28
Shoot number [1, 5]: 0.67 ± 0.33
